Assay results reported in patent publication EP1100483B1, “GLUCOCORTICOID-SELECTIVE ANTI-INFLAMMATORY AGENTS” (Abbott Laboratories, priority 1998, dated 2000).

What follows are compounds tested against T1, human androgen receptor (AR) (Homo sapiens, UniProt P10275) (assay: human androgen receptor (AR) cytosol binding assay, [3H]-dihydrotestosterone competition). Details: 1-2 nM [3H]-DHT, 4 °C for 18 hours; Cheng-Prusoff.
T1 construct: The full length human androgen receptor (AR) was derived from cDNA expressed in a baculovirus expression system; purchased Ligand Pharmaceuticals (San Diego, CA); host or cells: SF21 insect cells (baculovirus)
T1 sequence (P10275 1-920): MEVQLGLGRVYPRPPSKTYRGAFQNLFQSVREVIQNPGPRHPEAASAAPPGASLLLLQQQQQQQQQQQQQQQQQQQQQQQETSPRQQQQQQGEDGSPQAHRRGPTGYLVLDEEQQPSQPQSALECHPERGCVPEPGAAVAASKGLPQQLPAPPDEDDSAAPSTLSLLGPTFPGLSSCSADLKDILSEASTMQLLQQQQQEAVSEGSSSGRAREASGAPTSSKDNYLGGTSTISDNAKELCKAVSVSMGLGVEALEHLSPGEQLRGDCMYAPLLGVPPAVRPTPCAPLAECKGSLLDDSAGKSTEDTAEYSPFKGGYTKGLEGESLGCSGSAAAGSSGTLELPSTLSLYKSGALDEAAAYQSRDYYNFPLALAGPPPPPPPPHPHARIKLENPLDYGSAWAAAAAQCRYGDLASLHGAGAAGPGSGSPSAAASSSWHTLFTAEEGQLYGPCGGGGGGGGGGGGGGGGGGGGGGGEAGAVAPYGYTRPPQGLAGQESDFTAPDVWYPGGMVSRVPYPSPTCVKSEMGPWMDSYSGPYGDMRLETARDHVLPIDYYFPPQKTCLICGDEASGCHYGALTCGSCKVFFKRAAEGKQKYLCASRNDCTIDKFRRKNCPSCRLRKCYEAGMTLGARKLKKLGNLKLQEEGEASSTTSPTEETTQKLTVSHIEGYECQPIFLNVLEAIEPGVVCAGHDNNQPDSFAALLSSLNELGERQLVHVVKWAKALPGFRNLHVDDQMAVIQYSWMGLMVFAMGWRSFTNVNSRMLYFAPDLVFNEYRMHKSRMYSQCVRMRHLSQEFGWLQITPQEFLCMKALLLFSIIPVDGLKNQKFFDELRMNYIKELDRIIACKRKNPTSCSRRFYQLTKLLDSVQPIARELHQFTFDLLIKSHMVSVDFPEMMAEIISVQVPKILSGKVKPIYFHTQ
Text: For human androgen receptor (AR) cytosol binding assays, [^3H]-dihydrotestosterone (DHT) (120-140 Ci/mmol) was purchased from Amersham Life Science (Arlington Heights, IL), DHT was purchased from Sigma Chemical Co. (St. Louis, MO), CHAPS and DTT were purchased from Boehringer Mannheim GmbH (W. Germany), and all other reagents were purchased from Sigma. The full length human androgen receptor (AR) was derived from cDNA expressed in a baculovirus expression system from Ligand Pharmaceuticals (San Diego, CA). The methods concerning growth, purification, and assays of recombinant viruses followed the protocol outlined by Summers, M.D., Smith, G.E., A Manual of Methods for Baculovirus Vectors and Insect Cell Culture Procedures, Tex. Agric. Exp. Stn. [Bull], 1987, No. 155, hereby incorporated by reference. The recombinant plasmids were cotransfected into SF21 cells with wild type AcNPV DNA, and the recombinant viruses were plaque purified.
A receptor extract was prepared from the baculovirus system , and aliquots were stored at -80 °C until used. Typical protein concentrations for these extracts were between 10 and 20 mg/ml. Stock solutions of DHT or other competing compounds were prepared as 5 mM stock solutions in either 100% ethanol or DMSO and serial dilutions were carried out in 1:1 DMSO-ethanol. The assay buffer consisted of the following: 25 mM sodium phosphate, 10 mM potassium fluoride, 10 mM sodium molybdate, 10% glycerol, 1.5 mM EDTA, 2 mM DTT, 2 mM CHAPS and 1 mM PMSF, pH=7.4 at room temperature.
Receptor assays were performed with a final volume of 250 µL containing from 50-75 µg of extract protein, plus 1-2 nM [^3H]-DHT and varying concentrations of competing ligand (0-10-5 M). Assays were set up using a 96-well minitube system and incubations were carried out at 4 °C for 18 hours. Equilibrium under these conditions of buffer and temperature was achieved by 6-8 hours. Nonspecific binding was defined as that binding remaining in the presence of 1000 nM unlabeled DHT. At the end of the incubation period, 200 µL of 6.25% hydroxyapatite was added in wash buffer (binding buffer in the absence of DTT and PMSF). Specific ligand binding to receptor was determined by a hydroxyapatite-binding assay according to the protocol outlined by Wecksler, W.R., Norman, A.W., An Hydroxylapatite Batch Assay for the Quantitation of 1α, 25-Dihydroxyvitamin D3-Receptor Complexes, Anal. Biochem. 1979, 92, 314-323, hereby incorporated by reference. Hydroxyapatite absorbs the receptor-ligand complex, allowing for the separation of bound from free radiolabeled ligand. The mixture was vortexed, incubated for 10 minutes at 4 °C, centrifuged, and the supernatant was removed. The hydroxyapatite pellet was washed twice more with the wash buffer. The amount of receptor-ligand complex was determined by liquid scintillation counting of the hydroxyapatite pellet after the addition of […] EcoScint A scintillation cocktail from National Diagnostics (Atlanta, GA.).
After correcting for nonspecific binding, IC50 values were determined. […] The IC50 values were determined graphically from a log-logit plot of the data. […] Standards are included in each assay and resulting Ki values are determined by use of a modified Cheng-Prusoff equation and used to calculate Ki values for "unknown analogs" outlined by DeBlasi, A., O'Reilly, K., Motulsky, H.J., Calculating Receptor Number from Binding Experiments Using Same Compound As Radioligand and Competitor, TIPS 1989, 10, 227-229, hereby incorporated by reference.

| SMILES | Ki [nM] |
| --- | --- |
| CN(C)c1ccc(C(c2ccc(N(C)C)cc2)c2cc([N+](=O)[O-])ccc2Cl)cc1 [Example 1, 4',4" bis(dimethylamino)-2-chloro-5-nitrotriphenylmethane] | 3730 |
| CNc1ccc(C(c2ccc(NC)cc2)c2cc([N+](=O)[O-])ccc2Cl)cc1 [Example 23, 4',4" bis(methylamino)-2-chloro-5-nitrotriphenylmethane] | 4260 |
| CN(C)c1ccc(C(c2ccc(N(C)C)cc2)c2cc(Cl)ccc2Cl)cc1 [Example 24, 4',4" bis(dimethylamino)-2,5-dichlorotriphenylmethane] | 3730 |
| CNc1ccc(C(c2ccc(NC)cc2)c2cc(Cl)ccc2Cl)cc1 [Example 27, 4',4" bis(methylamino)-2,5-dichlorotriphenylmethane] | 3240 |
| CC(=O)OCCN(C)c1ccc(C(c2ccc(N(C)CCOC(C)=O)cc2)c2cc([N+](=O)[O-])ccc2Cl)cc1 [Example 31, 4',4" bis(N-(2-acetoxyethyl) N-methylamino)-2-chloro-5-nitrotriphenylmethane] | 3520 |
| CN(CCO)c1ccc(C(c2ccc(N(C)CCO)cc2)c2cc([N+](=O)[O-])ccc2Cl)cc1 [Example 32, 4',4" bis(N-(2-hydroxyethyl) N-methylamino)-2-chloro-5-nitrotriphenylmethane] | 3520 |
| O=[N+]([O-])c1ccc(Cl)c(C(c2ccc(NCc3ccccc3)cc2)c2ccc(NCc3ccccc3)cc2)c1 [Example 36, 4',4" bis(N-benzylamino)-2-chloro-5-nitrotriphenylmethane] | 3730 |
| CNc1ccc(C(c2ccc(N(C)C)cc2)c2cc([N+](=O)[O-])ccc2Cl)cc1 (stereo not shown) [Example 39, 4'-dimethylamino-4"-methylamino-2-chloro-5-nitrotriphenylmethane] | 3730 |
| CN(C)c1ccc(C(c2ccc(N(C)CCO)cc2)c2cc([N+](=O)[O-])ccc2Cl)cc1 (stereo not shown) [Example 42, 4'-dimethylamino-4"-(N-methyl-N-(2-hydroxyethyl)amino)-2-chloro-5-nitrotriphenylmethane] | 2800 |
| CNc1ccc(C(c2ccc(N(C)CCOC(C)=O)cc2)c2cc([N+](=O)[O-])ccc2Cl)cc1 (stereo not shown) [Example 49, 4'-methylamino-4"-(N-(2-acetoxyethyl)-N-methylamino)-2-chloro-5-nitrotriphenylmethane] | 1040 |
| CC(=O)OCCN(C)c1ccc(C(c2ccc(N(C)C)cc2)c2cc([N+](=O)[O-])ccc2Cl)cc1 (stereo not shown) [Example 51, 4'-dimethylamino-4"-(N-methyl-N-(2-acetoxyethyl)amino)-2-chloro-5-nitrotriphenylmethane] | > 10000 |
| CN(C)c1ccc(C(Oc2ccccc2)c2cc([N+](=O)[O-])ccc2Cl)cc1 (stereo not shown) [Example 52, phenyl-[(4'-dimethylaminophenyl)-(2-chloro-5-nitrophenyl)methyl] ether] | > 10000 |
| CN(C)c1ccc(C(Sc2ccccc2)c2cc([N+](=O)[O-])ccc2Cl)cc1 (stereo not shown) [Example 54, phenyl-[(4'-dimethylaminophenyl)-(2-chloro-5-nitrophenyl)methyl]thioether] | 3730 |
